One assay relates to A549 lung xenograft. In words: In vivo antitumor testing, lung xenograft model. The conditions noted are these: nude mice. The protocol:
(§1) Tumors were propagated in nude mice as subcutaneous (sc) transplants using tumor fragments obtained from donor mice. Tumor passage occurred approximately every two to four weeks. Tumors were then allowed to grow to the pre-determined size window (usually between 100-200 mg, tumors outside the range were excluded) and animals were evenly distributed to various treatment and control groups. […] Treated animals were checked daily for treatment related toxicity/mortality. Each group of animals was weighed before the initiation of treatment (Wt1) and then again following the last treatment dose (Wt2). The difference in body weight (Wt2-Wt1) provided a measure of treatment-related toxicity. Tumor response was determined by measurement of tumors with a caliper twice a week, until the tumors reached a predetermined target size of 1 gm or became necrotic. Tumor weights (mg) were estimated from the formula: Tumor weight=(length×width^2)/2 Antitumor activity was determined in terms of primary tumor growth inhibition. This was determined in two ways: (i) calculating the relative median tumor weight (MTW) of treated (T) and control (C) mice at various time points (effects were expressed as % T/C); and (ii) calculating the tumor growth delay (T-C value), defined as the difference in time (days) required for the treated tumors (T) to reach a predetermined target size compared to those of the control group (C). Statistical evaluations of data were performed using Gehan's generalized Wilcoxon test for comparisons of time to reach tumor target size (Gehan 1965). Statistical significance was declared at p<0.05. Antitumor activity was defined as a continuous MTW % T/C≦50% for at least 1 tumor volume doubling time (TVDT) any time after the start of treatment, where TVDT (tumor volume doubling time)=median time (days) for control tumors to reach target size−median time (days) for control tumors to reach half the target size.
(§2) Treated animals were checked daily for treatment related toxicity/mortality.

The next assay has as its system L2987 lung xenograft. Briefly: In vivo antitumor testing, lung xenograft model. The following applies: nude mice. The protocol:
as §1, §2

The subject of a further assay is LX1 lung xenograft. Briefly: In vivo antitumor testing, lung xenograft model. The conditions noted are these: nude mice. The protocol: as §1, §2
The next assay has as its system L2987. In words: Relative drug sensitivity in NSCLC cell lines, BrdU Cell Proliferation ELISA. In kind it is cell-based, human. The following applies: L2987 cell line. The protocol:
(§3) The NSCLC cell lines were grown using standard cell culture conditions: DMEM supplemented to contain 10% fetal bovine serum, 100 IU/ml penicillin, […] streptomycin and 2 mM L-glutamine (all from Invitrogen Life Technologies, Carlsbad, Calif.). […] Cytotoxicity was assessed in cells by BrdU Cell Proliferation calorimetric ELISA (Roche Applied Science, Indianapolis, Ind.). This is a calorimetric immunoassay for the quantification of cell proliferation based on the measurement of BrdU incorporation during DNA synthesis. To carry out the assays, the NSCLC cells were plated at 2500-5000 cells/well in 96 well microtiter plates and 24 hours later diluted monoclonal antibody drug was added. […] The cells were incubated at 37° C. for 48 hours at which time the BrdU labeling reagent was added. After two hours the labeling medium was removed and cells were fixed and the DNA was denatured using a FixDenat solution. The anti-BrdU antibody conjugated with peroxidase was added and immune complexes were detected by the subsequent substrate reaction. The reaction product was quantified by measuring the absorbance of the samples in an ELISA reader at […]. The greater the absorbency, the greater the number of live cells. […] Three to six independent BrdU assays were performed for each cell line.

In another assay the test system is LX1. The assay is described as above. It counts as cell-based, human. The conditions noted are these: LX1 (LX-1) cell line, EGFR negative. The protocol:
as §3

For another assay, the system named is A549. The assay is described as above. The following applies: A549 cell line, EGFR+. In kind it is cell-based, human. As to the method: as §3
The next assay deals with ChagoK1. The assay is described as above. It counts as cell-based, human. The following applies: ChagoK1 cell line. The protocol: as §3
Another assay deals with H226. The description is as above. It counts as cell-based, human. The conditions noted are these: H226 cell line, EGFR+. As to the method: as §3
Another assay deals with H522. Described as above. In kind it is cell-based, human. The conditions noted are these: H522 cell line, EGFR negative. The protocol: as §3

`COc1cc2ncnc(Nc3ccc(F)c(Cl)c3)c2cc1OCCCN1CCOCC1` [gefitinib]: the figures for the “sensitivity of lung xenograft model” value with A549 lung xenograft, in the assay with L2987 lung xenograft and in the assay on LX1 lung xenograft were “borderline sensitive”, “sensitive” and “resistant”, respectively. The resistance/sensitivity classification result in the assay on L2987 is “resistant”; in the assay on LX1, “resistant”; in the assay on A549, “resistant”; in the assay with ChagoK1, “sensitive”; in the assay with H226, “resistant”; in the assay with H522 it was “resistant”.

The values are drawn from US20070259375A1, “Biomarkers and Methods for Determining Sensitivity to Epidermal Growth Factor Receptor Modulators in Non-Small Cell Lung Cancer” (Bristol-Myers Squibb Company, priority 2004, published 2007).
